Measured values taken from publication PMC7438494 (Communications Biology, 2020).
Several values for one entry are separate records, joined by “and”; a condition that tells them apart may be missing. Equal values may be shown once. Read-outs that look alike come from different tables or passages of the source.

What was measured:
[1] = target: yeast mitochondrial ATP synthase (Saccharomyces cerevisiae, UniProt P00854+P61829); assay: biochemical; settings: for inhibition at 1 µM: read-out: % inhibition; for activity at 6 µM / inhibition at 6 µM: Bedaquiline 6 μM
[2] = test system: human mitochondrial ATP synthase; settings: reviewer's remark; ref previous reports; read-out: IC50, ATPase activity of human mitochondrial ATP synthase; cited from earlier work
[3] = target: yeast F1Fo ATP synthase (Saccharomyces cerevisiae, UniProt P00854+P61829); assay: biochemical
[4] = test system: yeast mitochondria; assay: Membrane potential of yeast mitochondria, fluorescence quenching of Rhodamine 123; type: biochemical, Saccharomyces cerevisiae; settings: high concentrations
Description: The membrane potential was assessed by measuring fluorescence quenching of Rhodamine 123 at 488 nm excitation and 525 nm emission in a buffer containing 0.65 M mannitol, 20 mM bis-tris-propane, 2 mM tris-phosphate, 0.3 mM EGTA, pH 6.8 with Rhodamine 123 dissolved in methanol (1.0 µM). Yeast mitochondria were energized with ethanol (0.4% v/v), whereas human mitochondria were energized with glutamate/malate (5 mM/2.5 mM).

[5] = 2nd exp (1-29-19), Bedaquiline 1 μM, frozen yeast mito, 60 min
[6] = 2nd exp (1-29-19), Bedaquiline 1.4 μM, frozen yeast mito, 60 min
[7] = 2nd exp (1-29-19), Bedaquiline 2 μM, frozen yeast mito, 60 min
[8] = 2nd exp (1-29-19), Bedaquiline 4 μM, frozen yeast mito, 60 min
[9] = 2nd exp (1-29-19), frozen yeast mito, 60 min
[10] = 3rd exp (2-1-19), Bedaquiline 0.005 μM, frozen yeast mito, 60 min
[11] = 3rd exp (2-1-19), Bedaquiline 0.05 μM, frozen yeast mito, 60 min
[12] = 3rd exp (2-1-19), Bedaquiline 0.1 μM, frozen yeast mito, 60 min
[13] = 3rd exp (2-1-19), Bedaquiline 0.5 μM, frozen yeast mito, 60 min
[14] = 3rd exp (2-1-19), Bedaquiline 1 μM, frozen yeast mito, 60 min
[15] = 3rd exp (2-1-19), Bedaquiline 1.4 μM, frozen yeast mito, 60 min
[16] = 3rd exp (2-1-19), Bedaquiline 2 μM, frozen yeast mito, 60 min
[17] = 3rd exp (2-1-19), Bedaquiline 4 μM, frozen yeast mito, 60 min
[18] = 3rd exp (2-1-19), frozen yeast mito, 60 min

Compound: COc1nc2ccc(Br)cc2cc1[C@@H](c1ccccc1)[C@@](O)(CCN(C)C)c1cccc2ccccc12 [BDQ, Bedaquiline]
- activity at 1 µM [1, 5]: 63%
- inhibition at 1 µM [1, 5]: 37%
- Cyanide sensitive ATP synthesis [1, 6]: 15.7394 nmol/min/mg
- activity at 1.4 µM [1, 6]: 30%
- inhibition at 1.4 µM [1, 6]: 70%
- Cyanide sensitive ATP synthesis [1, 7]: 6.265 nmol/min/mg
- activity at 2 µM [1, 7]: 11.9%
- inhibition at 2 µM [1, 7]: 88.1%
- activity at 4 µM [1, 8]: 1.16%
- inhibition at 4 µM [1, 8]: 98.8%
- activity at 6 µM [1, 9]: 0.645%
- inhibition at 6 µM [1, 9]: 99.4%
- Cyanide sensitive ATP synthesis [1, 10]: 55.7209 nmol/min/mg
- activity at 0.005 µM [1, 10]: 101%
- inhibition at 0.005 µM [1, 10]: -1.01%
- Cyanide sensitive ATP synthesis [1, 11]: 53.0953 nmol/min/mg
- activity at 0.05 µM [1, 11]: 96.2%
- inhibition at 0.05 µM [1, 11]: 3.75%
- Cyanide sensitive ATP synthesis [1, 12]: 53.6873 nmol/min/mg
- activity at 0.1 µM [1, 12]: 97.3%
- inhibition at 0.1 µM [1, 12]: 2.68%
- Cyanide sensitive ATP synthesis [1, 13]: 38.5022 nmol/min/mg
- activity at 0.5 µM [1, 13]: 69.8%
- inhibition at 0.5 µM [1, 13]: 30.2%
- Cyanide sensitive ATP synthesis [1, 14]: 33.4087 nmol/min/mg
- activity at 1 µM [1, 14]: 60.6%
- inhibition at 1 µM [1, 14]: 39.4%
- Cyanide sensitive ATP synthesis [1, 15]: 18.8899 nmol/min/mg
- activity at 1.4 µM [1, 15]: 34.2%
- inhibition at 1.4 µM [1, 15]: 65.8%
- Cyanide sensitive ATP synthesis [1, 16]: 16.8178 nmol/min/mg
- activity at 2 µM [1, 16]: 30.5%
- inhibition at 2 µM [1, 16]: 69.5%
- Cyanide sensitive ATP synthesis [1, 17]: 2.063 nmol/min/mg
- activity at 4 µM [1, 17]: 3.74%
- inhibition at 4 µM [1, 17]: 96.3%
- activity at 6 µM [1, 18]: 1.81%
- inhibition at 6 µM [1, 18]: 98.2%
- IC50 ([1]; IC50 ± SEM, ATP synthesis, yeast mitochondria): 1100 nM and ~1100 nM
- IC50 [2]: 200000 nM
- Hillslope, four parameter logistic fit ([3]; BDQ, F1Fo in bicelles): -1.0426
- max, four parameter logistic fit ([3]; BDQ, F1Fo in bicelles, […]): 1.167
- min, four parameter logistic fit ([3]; BDQ, F1Fo in bicelles, […]): 0.2116
- EC50 ([3]; BDQ, F1Fo in bicelles, x in µM BDQ, read-out: EC50, four parameter logistic fit (coefficient) (converted)): 0.0272 µM
- ATP hydrolysis activity (ΔA340nm), Exp 1-3 ([3]; F1Fo in bicelles, BDQ 0.0246 uM): 0.6436 and 0.6522 and 0.6471
- ATP hydrolysis activity (ΔA340nm), Exp 1-3 ([3]; F1Fo in bicelles, BDQ 0.0372 uM): 0.615 and 0.6977 and 0.5128
- ATP hydrolysis activity (ΔA340nm), Exp 1-3 ([3]; F1Fo in bicelles, BDQ 0.0744 uM): 0.5405 and 0.4979 and 0.4346
- ATP hydrolysis activity (ΔA340nm), Exp 1-3 ([3]; F1Fo in bicelles, BDQ 0.25 uM): 0.379 and 0.272 and 0.2957
- ATP hydrolysis activity (ΔA340nm), Exp 1-3 ([3]; F1Fo in bicelles, BDQ 0.37 uM): 0.3688 and 0.2428 and 0.2764
- ATP hydrolysis activity (ΔA340nm), Exp 1-3 ([3]; F1Fo in bicelles, BDQ 0.74 uM): 0.2533 and 0.2466 and 0.2454
- ATP hydrolysis activity (ΔA340nm), Exp 1-3 ([3]; F1Fo in bicelles, BDQ 1.49 uM): 0.2105 and 0.2204 and 0.2061
- ATP hydrolysis activity (ΔA340nm), Exp 1-3 ([3]; F1Fo in bicelles, BDQ 3.72 uM): 0.2216 and 0.2051 and 0.1755
- ATP hydrolysis activity (ΔA340nm), Exp 1-3 ([3]; F1Fo in bicelles, BDQ 7.44 uM): 0.2035 and 0.2344 and 0.1804
- ATP hydrolysis activity (ΔA340nm), Exp 1-3 ([3]; F1Fo in bicelles, BDQ 18.61 uM): 0.2777 and 0.1895 and 0.1989
- ATP hydrolysis activity (ΔA340nm), Exp 1-3 ([3]; F1Fo in bicelles, BDQ 37.22 uM): 0.2178 and 0.2279 and 0.1889
- ATP hydrolysis activity (ΔA340nm), Exp 1-3 ([3]; F1Fo in bicelles, BDQ 52.11 uM): 0.1835 and 0.2422 and 0.1841
- ATP hydrolysis activity (ΔA340nm), Exp 1-3 ([3]; F1Fo in bicelles, BDQ 74.45 uM): 0.1959 and 0.193 and 0.2223
- inhibition of ATP hydrolysis by yeast F1Fo (extent) ([3]; F1Fo in bicelles, maximal): ~85%
- IC50 ([3]; F1Fo in bicelles, n = 3, read-out: IC50 ± SEM, ATP hydrolysis, purified yeast F1Fo): 27 ± 2.5 nM
- IC50 ([3]; F1Fo in bicelles, read-out: IC50, ATP hydrolysis, purified yeast F1Fo): ~25 nM
- EC50 ([3]; reconstituted in bicelles, n = 3, read-out: EC50, inhibition of the ATPase activity of purified yeast ATP synthase): 0.027 ± 0.0025 µM
- effect on membrane potential, yeast mitochondria [4]: partial effect
